Assay results from patent publication US10285994B2, “Method of preventing or treating osteoporosis by neddylation inhibitor” (Chang Gung University, priority 2017, dated 2019).

Legend:
Format in all cases: cell-based, mouse
[1] = system: RAW264.7 cells; assay: Pit assay on Corning Osteo Surface, RAW264.7-derived osteoclasts; conditions: sRANKL-activated RAW264.7 cells, 7 days, FIG. 2B
Description: FIGS. 2A-2D are data collected from RAW264.7 cells respectively incubated in the medium containing sRANKL (50 ng/ml) and specified concentrations of MLN4924 for 7 days according to example 1.2 of the present disclosure. FIG. 2A: the photographs of TRAP staining depicting the differentiation of osteoclasts from RAW264.7 cells. FIG. 2B: after the differentiation of osteoclasts in Corning Osteo Surface, the cells were removed, and the resorbed areas for confirming osteoclast activity were analyzed by 1% toluidine blue staining. FIG. 2C: the culture medium is subject to Biovision Cathepsin K Activity Fluorometric Assay Kit for the analysis of cathepsin K activity. FIG. 2D: the effect of effective doses of MLN4924 on the viability of RAW264.7 cells is evaluated by MTT assay. Scale bar represents 100 μm. Data are expressed as mean±SD where *p<0.05.
The pre-osteoclasts and RAW264.7 cells were seeded into Corning Osteo Surface Assay 96-wells plate (Corning, Kennebunk, Me.). Twenty-four hours later, the cells were treated with sRANKL (50 ng/ml) and specified concentrations of MLN4924 for 7 days. The cells were then harvested so as to evaluate the cathepsin K activity by use of Biovision Cathepsin K Activity Fluorometric Assay Kit (Biovision, Milpitas, Calif.). The Corning Osteo surface was stained with 1% toluidine blue for 24 hours and washed with deionized water twice. […]

[2] = system: ERK (pERK); assay: Western blot, sRANKL-induced ERK phosphorylation in RAW264.7 cells; conditions: RAW264.7, 30 min pre-treatment, sRANKL 50 ng/ml, FIG. 3A-3B
Description: (§1) FIGS. 3A-3D are data collected from Western blot analysis that respectively depict the expression of specified protein extracted from the RAW264.7 cells, which are pre-treated with specified concentrations of MLN4924 for 30 minutes followed by the stimulation of sRANKL (50 ng/ml) according to example 2 of the present disclosure. FIG. 3A: the time course effect of MLN4924 on the phosphorylations of ERK (pERK), P38 (pP38) and JNK (pJNK). FIG. 3B: the dose effect of MLN4924 on the phosphorylations of ERK (pERK), P38 (pP38) and JNK (pJNK). FIG. 3C: the time course effect of MLN4924 on the expression of NFATc-1. FIG. 3D: the dose effect of MLN4924 on the expression of NFATc-1. Mock: untreated control; R: sRANKL; M: MLN4924.
(§2) The RAW264.7 cells were starved with serum-free medium for six hours and then treated with the specified treatments. At indicated time points, the cells were washed with cold phosphate-buffered saline (PBS) and lysed in RIPA buffer containing complete protease inhibitor cocktail (Roche). The cell lysates were separated by SDS-PAGE followed by Western blotting with the indicated antibodies, including NEDD8, APPBP1, UBA3.
(§3) Specifically, the inhibitory effect increased with an increase in the MLN4924 concentration (FIG. 3B).

[3] = system: P38 (pP38); assay: Western blot, sRANKL-induced P38 phosphorylation in RAW264.7 cells; conditions: RAW264.7, 30 min pre-treatment, sRANKL 50 ng/ml, FIG. 3A-3B
Description: as §1, §2, §3

[4] = system: JNK (pJNK); assay: Western blot, sRANKL-induced JNK phosphorylation in RAW264.7 cells; conditions: RAW264.7, 30 min pre-treatment, sRANKL 50 ng/ml, FIG. 3A-3B
Description: as §1, §2, §3

With `NS(=O)(=O)OC[C@@H]1C[C@@H](n2ccc3c(N[C@H]4CCc5ccccc54)ncnc32)C[C@@H]1O` [MLN4924, (1S,2S,4R)-4-(4-((1S)-2,3-Dihydro-1H-inden-1-ylamino)-7H-pyrrolo(2,3-d)pyrimidin-7-yl)-2-hydroxycyclopentyl) methyl sulphamate] the “bone matrix resorption of osteoclasts” value [1] was “significantly inhibited”, the “sRANKL-upregulated phosphorylation of ERK (pERK)” value [2] was “inhibited” and the “sRANKL-upregulated phosphorylation of P38 (pP38)” value [3] was “inhibited”. For the same compound, the “sRANKL-upregulated phosphorylation of JNK (pJNK)” value [4] was “inhibited”.
